Where a name gives a salt, the structure may show the parent alone.
What was measured:
[1] = patients, 1-yr trial; cited from earlier work
[2] = biological target: T1, human sphingosine kinase type 2 (hSPHK2) (Homo sapiens, UniProt Q9NRA0); test: Sphingosine kinase assay, recombinant human SPHK2 ([32P]S1P product, scintillation counting); assay type: biochemical; details: read-out: activity hSPHK2 (range estimate of KI)
T1 construct: purchased; host or cells: Sf9 insect cells (baculovirus)
T1 sequence (Q9NRA0 1-654): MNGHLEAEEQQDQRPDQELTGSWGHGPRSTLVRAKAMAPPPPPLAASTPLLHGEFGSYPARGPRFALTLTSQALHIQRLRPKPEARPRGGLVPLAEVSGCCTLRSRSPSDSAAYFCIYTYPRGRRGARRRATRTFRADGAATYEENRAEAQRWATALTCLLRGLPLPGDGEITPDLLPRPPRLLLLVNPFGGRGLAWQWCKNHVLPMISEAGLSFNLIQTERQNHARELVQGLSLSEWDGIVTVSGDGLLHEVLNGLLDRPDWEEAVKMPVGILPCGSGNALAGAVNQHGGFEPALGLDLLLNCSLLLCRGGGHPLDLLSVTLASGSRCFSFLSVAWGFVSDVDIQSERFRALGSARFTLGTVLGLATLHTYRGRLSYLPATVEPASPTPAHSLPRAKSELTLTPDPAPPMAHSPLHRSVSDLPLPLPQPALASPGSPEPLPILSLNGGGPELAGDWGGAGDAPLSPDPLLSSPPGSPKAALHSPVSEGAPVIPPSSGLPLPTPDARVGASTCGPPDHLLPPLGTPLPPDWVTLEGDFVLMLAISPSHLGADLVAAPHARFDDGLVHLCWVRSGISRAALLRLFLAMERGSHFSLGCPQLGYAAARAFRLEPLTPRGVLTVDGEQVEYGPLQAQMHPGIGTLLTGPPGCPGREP
Procedure, shortened: (§1)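 Activity read as [32P]S1P bound to cation exchange paper and quantified by scintillation counting, standard kinase protocol. Enzyme sources: human SPHK2 partially purified from baculovirus-infected Sf9 lysates; human SPHK1 as crude cleared Sf9 lysate.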

[3] = biological target: T2, human sphingosine kinase type 1 (hSPHK1) (Homo sapiens, UniProt Q9NYA1); test: Sphingosine kinase assay, recombinant human SPHK1 ([32P]S1P product, scintillation counting); assay type: biochemical; details: read-out: activity hSPHK1 (range estimate of KI)
T2 construct: made in house; host or cells: Sf9 insect cells (baculovirus)
Procedure, shortened: as §1

T2 sequence (Q9NYA1 whole entry): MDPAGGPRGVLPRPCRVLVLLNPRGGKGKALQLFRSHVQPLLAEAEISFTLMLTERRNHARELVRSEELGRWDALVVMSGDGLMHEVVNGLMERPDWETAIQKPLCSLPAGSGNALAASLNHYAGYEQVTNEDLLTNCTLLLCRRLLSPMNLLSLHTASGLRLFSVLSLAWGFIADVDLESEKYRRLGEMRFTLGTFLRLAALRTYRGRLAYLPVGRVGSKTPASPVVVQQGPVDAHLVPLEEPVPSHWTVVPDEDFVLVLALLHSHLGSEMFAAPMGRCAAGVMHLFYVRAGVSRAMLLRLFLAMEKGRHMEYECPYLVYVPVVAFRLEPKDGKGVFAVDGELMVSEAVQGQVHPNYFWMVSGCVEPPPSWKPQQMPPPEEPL

Compound | Ki [2] [µM] | Ki [3] [µM] | modest hypertension [1]
CCCCCCCCc1ccc(CCC(N)(CO)CO)cc1 [fingolimod, 2-amino-2-[2-(4-octylphenyl)ethyl] propane 1,3-diol] | – | – | 2-3 mmHg
CCCCCCCCCCCn1cc(-c2noc([C@@H]3CCCN3C(=N)N)n2)c2ccccc21 [Compound 4A, (S)-amino(2-(3-(1-undecyl-1H-indol-3-yl)-1,2,4-oxadiazol-5-yl)pyrrolidin-1-yl)methaniminium chloride] | 1 to 10 | > 10 | –
CC(C)COc1ccc2cc(-c3noc([C@@H]4CCCN4C(=N)N)n3)ccc2c1 [Compound 14A, (S)-amino(2-(3-(6-isobutoxynaphthalen-2-yl)-1,2,4-oxadiazol-5-yl)pyrrolidin-1-yl)methaniminium chloride] | > 10 | > 10 | –
N=C(N)N1CC[C@H](O)[C@H]1c1nc(-c2ccc(OCCCc3ccc(C(F)(F)F)cc3)c(C(F)(F)F)c2)no1 [Compound 22A, amino((2S,3S)-3-hydroxy-2-(3-(3-(trifluoromethyl)-4-(3-(4-(trifluoromethyl)phenyl)propoxy)phenyl)-1,2,4-oxadiazol-5-yl)pyrrolidin-1-yl)methaniminium chloride] | < 1 | 1 to 10 | –
N=C(N)N1CCC[C@H]1c1nc(-c2ccc(OCCCCO)c(C(F)(F)F)c2)no1 [Compound 45A, (S)-2-(3-(4-(4-hydroxybutoxy)-3-(trifluoromethyl)phenyl)-1,2,4-oxadiazol-5-yl)pyrrolidine-1-carboximidamide hydrochloride] | 1 to 10 | > 10 | –
N=C(N)N1CCC[C@H]1c1nc(-c2ccc(OC/C=C/c3ccccc3C(F)(F)F)c(C(F)(F)F)c2)no1 [Compound 89A, (S,E)-2-(3-(3-(trifluoromethyl)-4-((3-(2-(trifluoromethyl)phenyl)allyl)oxy)phenyl)-1,2,4-oxadiazol-5-yl)pyrrolidine-1-carboximidamide hydrochloride] | > 10 | > 10 | –
CCCCCOc1ccc2cc(-c3noc([C@@H]4[C@@H](O)CCN4C(=N)N)n3)ccc2c1 [Compound 14B, Amino((2S,3S)-3-hydroxy-2-(3-(6-(pentyloxy)naphthalen-2-yl)-1,2,4-oxadiazol-5-yl)pyrrolidin-1-yl)methaniminium chloride] | < 1 | < 1 | –
COCCCCOc1ccc(-c2noc([C@@H]3CCCN3C(=N)N)n2)cc1C(F)(F)F [Compound 46A, (S)-2-(3-(4-(4-methoxybutoxy)-3-(trifluoromethyl)phenyl)-1,2,4-oxadiazol-5-yl)pyrrolidine-1-carboximidamide 2,2,2-trifluoroacetate] | > 10 | > 10 | –
CCCCCCCCc1ccc(-c2noc([C@@H]3CCCN3C(=N)N)n2)cc1C(F)(F)F [Compound 5A, (S)-Amino(2-(3-(4-octyl-3-(trifluoromethyl)phenyl)-1,2,4-oxadiazol-5-yl)pyrrolidin-1-yl)methaniminium chloride] | < 1 | > 10 | –
C=CCOc1ccc(-c2noc([C@@H]3CCCN3C(=N)N)n2)cc1C(F)(F)F [Compound 77A, (S)-2-(3-(4-(allyloxy)-3-(trifluoromethyl)phenyl)-1,2,4-oxadiazol-5-yl)pyrrolidine-1-carboximidamide hydrochloride] | > 10 | > 10 | –
N=C(N)N1CCC[C@H]1c1nc(-c2ccc(OCCCCc3ccc(C(F)(F)F)cc3)c(C(F)(F)F)c2)no1 [Compound 26A, (S)-amino(2-(3-(3-(trifluoromethyl)-4-(4-(4-(trifluoromethyl)phenyl)butoxy)phenyl)-1,2,4-oxadiazol-5-yl)pyrrolidin-1-yl)methaniminium chloride] | < 1 | > 10 | –
CCCCCCCCCn1cc(-c2noc([C@@H]3CCCN3C(=N)N)n2)c2ccccc21 [Compound 2A, (S)-amino(2-(3-(1-nonyl-1H-indol-3-yl)-1,2,4-oxadiazol-5-yl)pyrrolidin-1-yl)methaniminium chloride] | > 10 | > 10 | –

Now from value to compound, other results behind:

Ki [2] [µM] | Ki [3] [µM] | Compound | modest hypertension [1]
1 to 10 | > 10 | N=C(N)N1CC[C@H](O)[C@H]1c1nc(-c2ccc(OCCCc3ccc4c(c3)OCCO4)c(C(F)(F)F)c2)no1 [Compound 27A] | –
< 1 | 1 to 10 | N=C(N)N1CC[C@H](O)[C@H]1c1nc(-c2ccc(OCCc3ccc(C(F)(F)F)cc3)c(C(F)(F)F)c2)no1 [Compound 23A, amino((2S,3S)-3-hydroxy-2-(3-(3-(trifluoromethyl)-4-(4-(trifluoromethyl)phenethoxy)phenyl)-1,2,4-oxadiazol-5-yl)pyrrolidin-1-yl)methaniminium chloride] | –
1 to 10 | > 10 | N=C(N)N1CCC[C@H]1c1nc(-c2ccc3cc(OCc4ccc(-c5ccccc5)cc4)ccc3c2)no1 [Compound 72A, (S)-(2-(3-(6-([1,1′-biphenyl]-4-ylmethoxy)naphthalen-2-yl)-1,2,4-oxadiazol-5-yl)pyrrolidin-1-yl)(amino)methaniminium chloride] | –
< 1 | > 10 | N=C(N)N1CCC[C@H]1c1nc(-c2ccc(OCC/C=C/c3ccc(C(F)(F)F)cc3)c(C(F)(F)F)c2)no1 [Compound 91A, (S,E)-2-(3-(3-(trifluoromethyl)-4-((4-(4-(trifluoromethyl)phenyl)but-3-en-1-yl)oxy)phenyl)-1,2,4-oxadiazol-5-yl)pyrrolidine-1-carboximidamide hydrochloride] | –
< 1 | > 10 | CCC/C=C\CCOc1ccc(-c2noc([C@@H]3CCCN3C(=N)N)n2)cc1C(F)(F)F [Compound 84A, (S,Z)-amino(2-(3-(4-(hept-3-en-1-yloxy)-3-(trifluoromethyl)phenyl)-1,2,4-oxadiazol-5-yl)pyrrolidin-1-yl)methaniminium 2,2,2-trifluoroacetate] | –
< 1 | > 10 | N=C(N)N1CCC[C@H]1c1nc(-c2ccc(OCCCc3ccc(C(F)(F)F)cc3)c(C(F)(F)F)c2)no1 [Compound 32A, (S)-amino(2-(3-(3-(trifluoromethyl)-4-(3-(4-(trifluoromethyl)phenyl)propoxy)phenyl)-1,2,4-oxadiazol-5-yl)pyrrolidin-1-yl)methaniminium chloride] | –
1 to 10 | > 10 | N=C(N)N1CCC[C@H]1c1nc(-c2ccc(CCC3CCCC3)c(C(F)(F)F)c2)no1 [Compound 44A, (S)-2-(3-(4-(2-cyclopentylethyl)-3-(trifluoromethyl)phenyl)-1,2,4-oxadiazol-5-yl)pyrrolidine-1-carboximidamide hydrochloride] | –
< 1 | 1 to 10 | N=C(N)N1CC[C@H](O)[C@H]1c1nc(-c2ccc(OCc3ccc(C(F)(F)F)cc3)c(C(F)(F)F)c2)no1 [Compound 24A, amino((2S,3S)-3-hydroxy-2-(3-(3-(trifluoromethyl)-4-((4-(trifluoromethyl)benzyl)oxy)phenyl)-1,2,4-oxadiazol-5-yl)pyrrolidin-1-yl)methaniminium chloride] | –
> 10 | > 10 | N=C(N)N1CCC[C@H]1c1nc(-c2ccc3cc(OCCc4cccc(C(F)(F)F)c4)ccc3c2)no1 [Compound 60A, (S)-amino(2-(3-(6-(3-(trifluoromethyl)phenethoxy)naphthalen-2-yl)-1,2,4-oxadiazol-5-yl)pyrrolidin-1-yl)methaniminium chloride] | –
> 10 | > 10 | CCCCCCOc1ccc2cc(-c3noc([C@@H]4CCCN4C(=N)N)n3)ccc2c1 [Compound 16A, (S)-amino(2-(3-(6-(hexyloxy)naphthalen-2-yl)-1,2,4-oxadiazol-5-yl)pyrrolidin-1-yl)methaniminium chloride] | –
< 1 | > 10 | CCCC/C=C/COc1ccc(-c2noc([C@@H]3CCCN3C(=N)N)n2)cc1C(F)(F)F [Compound 78A, (S,E)-amino(2-(3-(4-(hept-2-en-1-yloxy)-3-(trifluoromethyl)phenyl)-1,2,4-oxadiazol-5-yl)pyrrolidin-1-yl)methaniminium 2,2,2-trifluoroacetate] | –
< 1 | > 10 | N=C(N)N1CCC[C@H]1c1nc(-c2ccc(CCc3ccc(C(F)(F)F)cc3)c(C(F)(F)F)c2)no1 [Compound 39A, (S)-2-(3-(3-(trifluoromethyl)-4-(4-(trifluoromethyl)phenethyl)phenyl)-1,2,4-oxadiazol-5-yl)pyrrolidine-1-carboximidamide hydrochloride] | –

Source: patent US10100022B2, “Sphingosine kinase inhibitors” (University of Virginia Patent Foundation, priority 2014, dated 2018)
